Consider 15 compounds from patent US8470859B2, “Iminopyridine derivative and use thereof” (Takeda Pharmaceutical Company Limited, priority 2006, dated 2013).

Structures can show the parent of a compound that is named as a salt. Where two headings read alike, the source gives them in different places.

Experiment [1] concerns isolated bladder muscle of BOO model rat. Kind of experiment: Effect of various drugs on α1 receptor stimulation-induced contraction of isolated bladder muscle of bladder outlet obstruction (BOO) model rat. To be noted: phenylephrine 3 μmol/L; for IC50: Rattus norvegicus, 0.5 h, concentration inhibiting the average tension by 50%, read-out: Inhibitory effect on phenylephrine-induced contraction IC50 (average method); for IC50 / Inhibitory effect on phenylephrine-induced contraction IC30 (stddev method): cumulative treatment, 3 concentrations, 30 min intervals; for Inhibitory effect on phenylephrine-induced contraction IC30 (stddev method): concentration inhibiting the sustained, rhythmic contractile responses by 30%. The procedure: Effect of Various Drugs on α1 Receptor Stimulation-Induced Contraction of Isolated Bladder Muscle of Bladder Outlet Obstruction (BOO) Model Rat
• (i) Seven-week-old male Wistar rats (CLEA Japan, Inc., Tokyo) were used. BOO rat was prepared according to publications (Hashimoto T, Nagabukuro H and Doi T: Effects of the selective acetylcholinesterase inhibitor TAK-802 on the voiding behavior and bladder mass increase in rats with partial bladder outlet obstruction. J Urol. 174: 1137-41., 2005.). After pentobarbital (50 mg/kg i.p., Dainippon Sumitomo Pharma Co., Ltd., Osaka) anesthesia, a lower middle abdominal incision was made to expose the bladder. The prostate was detached, the urethra was ligated along with a glass rod having an outer diameter of 1.2 mm, and the glass rod was removed to prepare partial obstruction of the urethra. After the surgery, the abdomen was sutured, and penicillin (2000 IU/rat, penicillin G potassium, MEIJI SEIKA KAISHA, LTD., Tokyo) was subcutaneously administered. An animal after 2 to 4 weeks from obstruction surgery was used. • (ii) Contractile Responses of Isolated Bladder Muscle (1) Preparation of Bladder Muscle Specimen
BOO model rat was sacrificed by decaptation, and the bladder was isolated. Muscle strips (length 7-10 mm, width about 3 mm) in the longitudinal direction were prepared from the bladder except bladder trigone (4-6 specimen from each bladder).
The prepared bladder muscle specimens were hung in a Magnus bath aerated with 95% O2-5% CO2 gas and filled with modified Krebs solution. The contraction tension was measured by an isometric strain transducer (TSD125C, Biopac systems, Santa Barbara, Calif., USA) and recorded in the hard disc of PC (ThinkCentre, IBM, USA) via an amplifier (DA100C, Biopac systems) and a multichannel data analysis apparatus (MP100A-CE, Biopac systems). For uptaking the data, a dedicated software (Acqknowledge 3.8.1., Biopac systems) was used and the sampling interval was set to 0.2 second (5 Hz). The specimens were hung with a load of about 1 g and, after an equilibration time of 1 hr or longer, the following experiment was performed.
The specimens were treated with phenylephrine (3 μmol/L) to induce contraction. After the contractile response was stabilized (>20 min), the specimens were cumulatively treated 3 times with a drug at a 10-fold common ratio and 30 min intervals, and the variation in the tension was observed.
The variation in the tension due to α1 receptor stimulation was evaluated by the two methods shown below [average method and standard deviation (Stddev) method].
The average tension for one minute was measured immediately before phenylephrine treatment and after the contraction was stabilized after the treatment (immediately before completion of about 20 min observation time), and the difference was taken as 100%. The average tension for one minute was measured immediately before completion of observation time (30 min) after treatment with a drug at each concentration, and the inhibition rate of the drug at each concentration was calculated. In the vehicle treatment group, the variation rate of phenylephrine-induced contraction was calculated every time the specimens were treated 3 times with lo the solvent, and the inhibition rate of the drug at each concentration was adjusted based on the variation rate of the corresponding vehicle treatment group. The concentration (IC50) necessary for inhibiting the average tension by 50% by preclinical package (SAS Institute Japan, Ver. 5.0) was calculated based on the inhibition rate at each concentration.
The standard deviation was measured immediately before phenylephrine treatment and for 5 min after the contraction was stabilized after treatment (immediately before completion of the about 20 min observation time) and the difference was taken as 100%. […]

In experiment [2] the target is T1, human adrenaline α1D receptor (Homo sapiens, UniProt P25100).
T1 construct: expressed in transfected cells; membrane fraction used
T1 sequence (P25100 1-572): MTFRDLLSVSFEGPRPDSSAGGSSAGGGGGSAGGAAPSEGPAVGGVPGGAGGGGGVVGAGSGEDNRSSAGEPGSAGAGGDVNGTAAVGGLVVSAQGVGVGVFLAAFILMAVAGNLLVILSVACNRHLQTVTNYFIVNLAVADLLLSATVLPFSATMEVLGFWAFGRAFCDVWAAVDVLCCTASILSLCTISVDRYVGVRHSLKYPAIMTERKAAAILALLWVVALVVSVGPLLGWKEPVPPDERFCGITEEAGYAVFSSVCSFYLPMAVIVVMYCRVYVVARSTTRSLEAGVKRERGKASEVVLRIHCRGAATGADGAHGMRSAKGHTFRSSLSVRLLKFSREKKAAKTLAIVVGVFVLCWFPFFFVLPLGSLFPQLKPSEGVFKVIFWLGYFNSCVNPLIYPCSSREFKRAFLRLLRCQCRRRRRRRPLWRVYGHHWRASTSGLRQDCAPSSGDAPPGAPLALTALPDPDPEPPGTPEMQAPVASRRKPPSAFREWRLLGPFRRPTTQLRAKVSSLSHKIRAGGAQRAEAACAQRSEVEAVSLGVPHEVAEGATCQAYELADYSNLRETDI
Kind of experiment: Measurement of α1D receptor binding inhibitory activity ([3H]prazosin binding to membrane fraction of CHO-K1 cells expressing the receptor). The following applies: read-out: binding inhibitory rate (%) (α1D receptor binding inhibitory rate at 1 μM). How it is done:
Measurement of α1D Receptor Binding Inhibitory Activity
Genetic manipulation methods described below are based on the methods described in Maniatis et al., Molecular Cloning, Cold Spring Harbor Laboratory, 1989, the protocol appended to a reagent and the like. • (i) Preparation of Human Adrenaline α1D Receptor Expression Plasmid
Adrenaline α1D receptor gene was cloned from human […] CDNA by the PCR method. PCR reaction was performed by Gene Amp PCR System 9700 (Applied Biosystems) with […] each of the primer set 5′-[…]-3′ [SEQ ID NO: 1] and 5′-[…]-3′ [SEQ ID NO: 2] prepared in reference to the base sequence of the adrenaline α1D receptor gene reported by DEBRA A. et al. (J. Pharamacol. Exp. Ter., 272, 134-142 (1995)), 200 ng of human brain hippocampus cDNA library (Takara Shuzo Co., Ltd.) as a template and TaKaRa LA-Taq DNA Polymerase (Takara Shuzo Co., Ltd.) (reaction conditions: 45 cycles of 94° C. for 15 sec, 68° C. for 3.5 min).
The PCR fragment obtained above was digested with restriction enzymes NheI (Takara Shuzo Co., Ltd.) and Kpn I (Takara Shuzo Co., Ltd.) and applied to agarose gel electrophoresis to recover DNA fragments. The DNA fragments was ligated with animal cell expression plasmid, pcDNA3.1/Zeo (Invitrogen) digested with NheI and Kpn I, by DNA Ligation Kit Ver.2 (Takara Shuzo Co., Ltd.), and transformed the competent cells of Escherichia coli JM109 to obtain plasmid, pcDNA3. 1/Zeo-Adreα1D. • (ii) Introduction of Human Adrenaline α1D Receptor Expression Plasmid into CHO-K1 Cells and Preparation of Membrane Fraction
CHO-K1 cells passage cultured in HmF12 medium (Invitrogen) containing 10% fetal bovine serum (TRACE SCIENCETIFIC) in a 150 cm^2 culture flask (Corning Coaster) were detached with 0.5 g/L trypsin-0.2 g/L EDTA (Invitrogen), and the cells were washed with D-PBS(−) (Invitrogen) and centrifuged (1000 rpm, 5 min). Then, using Gene Pulser II (BioRad), DNA was introduced into the cells under the following conditions. 1×10^7 cells suspended in D-PBS(−) (700 μl) and 10 μg of pcDNA3.1/Zeo-Adreα1D were added in a 0.4 cm gap cuvette (BioRad), and electroporation was performed under voltage 0.25 kV, capacitance 960 μF. The cells were cultured in HamF12 medium containing 10% fetal bovine serum and 250 μg/mL Zeocin (Invitrogen) and the Zeocin resistance clones were selected.
Plurality of Zeocin resistance clones were selected and cultured in a cell culture flask (150 cm^2) until semiconfluent, and the cellular membrane fraction was prepared as follows.
The semiconfluent cells were detached with 0.02% EDTA containing D-PBS(−) and recovered by centrifugation. The cells were suspended in membrane preparation buffer (10 mM NaHCO3 pH 7.4, protease inhibitor cocktail (Roche)) and disrupted by 3 times of treatment in a polytron homogenizer (model PT-3100, KINEMATICA AG) at 20000 rpm for 20 seconds. After disruption, the cells were centrifuged at 2000 rpm for 10 min and the supernatant containing membrane fractions was obtained. The supernatant was centrifuged using an ultracentrifuge (model L8-70M, rotor 70 Ti, Beckman Instruments) at 30000 rpm for 1 hr to obtain a precipitate containing membrane fractions. The obtained membrane fraction of each clone was subjected to the binding experiment shown below.
The membrane fraction (20 μg/well) [^3H] prazosin (2.5 nM, PerkinElmer Lifescience), as a ligand, were diluted with a binding assay buffer (50 mM Tris-HCl, 10 mM MgCl2, 0.5% BSA, protease inhibitor cocktail pH 7.5) and added to a 96 well microplate, and reacted at room temperature for 1 hr. For the measurement of non-specific binding, phentolamine (Sigma) was further added to 10 μM. Then, the reaction mixture was filtered and transferred to unifilter GF/C (PerkinElmer Lifescience) by using a cell harvester (PerkinElmer Lifescience). The filter was washed 3 times with ice-cooled 50 mM Tris buffer (pH 7.5). […]

Setting [3] is: compound at 1 μM, [3H] prazosin 2.5 nM, membrane fraction 20 μg/well.

For orientation: IC50 means the concentration that inhibits the measured activity by half.

Take `COc1ccccc1N1CCN(CCN2C(=O)CC3(CCCC3)CC2=O)CC1` [BMY 7378]: in experiment [1], the IC50 is 270 nM; the “effect on the rhythmic contractile response induced by phenylephrine (average method and Stddev method), in words” value (“effect … in words” below) is given as “inhibited”; the “Inhibitory effect on phenylephrine-induced contraction IC30 (stddev method)” value (“Inhibitory effect” for short) is 89 nM.

For `N=c1c(C(N)=O)cc(Cl)cn1Cc1cccc(Cl)c1` [Example 19, 5-chloro-1-(3-chlorobenzyl)-2-imino-1,2-dihydropyridine-3-carboxamide], the inhibition at 1 µM in experiment [2] (setting [3]) is 99.1%.

With `N=c1c(C(N)=O)cc(Cl)cn1Cc1ccc(Cl)c(Cl)c1` [Example 20, 5-chloro-1-(3,4-dichlorobenzyl)-2-imino-1,2-dihydropyridine-3-carboxamide], in experiment [2] (setting [3]), the inhibition at 1 µM came to 100%.

For `N=c1c(C(N)=O)cc(Cl)cn1CCc1ccccc1` [Example 23, 5-chloro-2-imino-1-(2-phenylethyl)-1,2-dihydropyridine-3-carboxamide], in experiment [2] (setting [3]), the inhibition at 1 µM worked out at 81.8%.

On to `N=c1c(C(N)=O)cc(Cl)cn1CC1CCCCC1` [Example 26, 5-chloro-1-(cyclohexylmethyl)-2-imino-1,2-dihydropyridine-3-carboxamide], for which the inhibition at 1 µM in experiment [2] (setting [3]) amounted to 75.7%.

Consider `N=c1c(C(N)=O)cc(Cl)cn1C1CCc2ccccc21` (stereo not drawn) [Example 32, 5-chloro-1-(2,3-dihydro-1H-inden-1-yl)-2-imino-1,2-dihydropyridine-3-carboxamide], for which the inhibition at 1 µM in experiment [2] (setting [3]) was 93.9%.

As to `CS(=O)(=O)c1cc(Cl)ccc1Cn1cc(Cl)cc(C(N)=O)c1=N` [Example 149, 5-chloro-1-[4-chloro-2-(methylsulfonyl)benzyl]-2-imino-1,2-dihydropyridine-3-carboxamide hydrobromide], the inhibition at 1 µM in experiment [2] (setting [3]) is 96%.

For the compound `N#Cc1cc(C(N)=O)c(=N)n(Cc2cccc(Cl)c2)c1` [Example 151, 1-(3-chlorobenzyl)-5-cyano-2-imino-1,2-dihydropyridine-3-carboxamide hydrobromide], the inhibition at 1 µM in experiment [2] was 69.5%.

Turning to `N#Cc1ccc(F)c(Cn2cc(Cl)cc(C(N)=O)c2=N)c1` [Example 156, 5-chloro-1-(5-cyano-2-fluorobenzyl)-2-imino-1,2-dihydropyridine-3-carboxamide hydrobromide], the inhibition at 1 µM in experiment [2] (setting [3]) came out at 91.8%.

As to `C[C@H](c1ccccc1)n1cc(Cl)cc(C(N)=O)c1=N` [Example 168, 5-chloro-2-imino-1-[(1R)-1-phenylethyl]-1,2-dihydropyridine-3-carboxamide hydrochloride], in experiment [2] (setting [3]), the inhibition at 1 µM was 94.7%.

Consider `N=c1c(C(N)=O)cc(Cl)cn1[C@@H]1CCc2ccccc21` [Example 169, 5-chloro-1-[(1R)-2,3-dihydro-1H-inden-1-yl]-2-imino-1,2-dihydropyridine-3-carboxamide hydrochloride], for which the inhibition at 1 µM in experiment [2] (setting [3]) was determined as 100%.

Consider `N#Cc1cc(F)cc(Cn2cc(Cl)cc(C(N)=O)c2=N)c1` [Example 181, 5-chloro-1-(3-cyano-5-fluorobenzyl)-2-imino-1,2-dihydropyridine-3-carboxamide hydrobromide], for which, in experiment [2] (setting [3]), the inhibition at 1 µM worked out at 95.4%.

In the case of `N#Cc1cc(Cl)cc(Cn2cc(Cl)cc(C(N)=O)c2=N)c1` [Example 182, 5-chloro-1-(3-chloro-5-cyanobenzyl)-2-imino-1,2-dihydropyridine-3-carboxamide hydrobromide], the inhibition at 1 µM in experiment [2] (setting [3]) turned out to be 99.2%.

For `COc1ccccc1N1CCN(CC(O)COc2cccc3ccccc23)CC1` (stereo not drawn) [Naftopidil], in experiment [1], the IC50 worked out at 1500 nM; the “effect … in words” value was “inhibited”; the “Inhibitory effect” value worked out at 3800 nM.

`CCOc1ccccc1OCCN[C@H](C)Cc1ccc(OC)c(S(N)(=O)=O)c1` [Tamsulosin, tamsulosin]: in experiment [1], the IC50 was 34 nM; the “effect … in words” value was “inhibited”; the “Inhibitory effect” value turned out to be 9.4 nM.
